Assays:
Format in all cases: biochemical
[1] = molecular target: T1, α-N-acetylgalactosaminidase (from chicken liver) (Gallus gallus, UniProt Q90744); test: α-N-acetylgalactosaminidase inhibition (Test Example 1); details: for IC50: α-N-acetylgalactosaminidase from chicken liver, substrate p-nitrophenyl-N-acetyl-α-D-galactosaminide, pH 4.0, 37° C., 30 minutes, read-out: 50% inhibiory concentration (IC50) Enzyme A (converted)
T1 construct: originated from chicken liver (a product of Sigma Company); purchased Sigma Company; host or cells: chicken liver
T1 sequence (Q90744 1-405): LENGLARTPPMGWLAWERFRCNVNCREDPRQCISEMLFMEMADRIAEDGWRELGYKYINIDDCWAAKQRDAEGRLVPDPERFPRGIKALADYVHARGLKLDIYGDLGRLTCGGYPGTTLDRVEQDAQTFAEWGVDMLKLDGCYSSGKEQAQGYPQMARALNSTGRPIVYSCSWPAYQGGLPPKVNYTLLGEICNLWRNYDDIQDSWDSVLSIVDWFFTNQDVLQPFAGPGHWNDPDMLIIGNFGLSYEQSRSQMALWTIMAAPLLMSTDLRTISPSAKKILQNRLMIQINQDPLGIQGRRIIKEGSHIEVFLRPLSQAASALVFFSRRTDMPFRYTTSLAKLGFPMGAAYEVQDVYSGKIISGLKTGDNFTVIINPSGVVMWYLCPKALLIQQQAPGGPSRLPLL
Method: This Test Example is a test example for determining the N-acetylgalactosaminidase-inhibitory activity of the compound of the formula (I), (V) or (X) according to this invention.
Assay of the N-acetylgalactosaminidase-inhibitory activity was conducted according to a modification of the method described in the “Journal of Biological Chemistry”, 252, pp.5194-5200(1977).
(§1) Thus, 0.5 mL of 0.025M citrate-phosphate buffer (pH 4.0), 0.1 mL of the same buffer containing 10 mM p-nitro-phenyl-N-acetyl-α-D-galactosaminide dissolved therein, and 0.1 mL of either water or an aqueous solution containing as the test compound any one of the compounds of the formulae (I), (V) and (X) according to this invention were mixed with each other and pre-incubated in a 96-wells titer plate at 37° C. for 10 minutes. After the completion of the pre-incubation, to the pre-incubated mixture was added 0.01 mL of 0.025 M citrate-phosphate buffer containing α-N-acetyl-galactosaminidase originated from chicken liver (a product of Sigma Company) which was dissolved in said buffer as a glycosidase to be tested. Thereafter, the enzymatic reaction was conducted at 37° C. for 30 minutes.
(§2) After the enzymatic reaction, to the reaction solution was added 1.0 mL of 0.3M glycine—sodium hydroxide buffer (pH 10.5), in order to terminate the enzymatic reaction. Thereafter, the absorbance [designated as value (a)] of light at 405 nm of the resulting reaction solution was measured. Concurrently, measurement was made of the absorbance [designated as value (b)] at 405 nm of the reaction solution as obtained in the control test where the enzymatic reaction was conducted without addition of the test compound. Further, measurements were made of the absorbance [designated as values (a′)] and the absorbance [[designated as values (b′)] at 405 nm of the solutions as obtained in the blank test and the control test, respectively, where the enzymatic reaction was not conducted in the assay test. The rate of inhibition to […] was calculated by the equation: [1-(a-a′)/(b-b′)]×100.
(§3) The test results obtained are summarized as IC50 value in Table 1 below.

[2] = system: β-D-mannosidase (from snail); test: β-mannosidase inhibition (Test Example 5); details: for inhibition of β-D-mannosidase, in words: summary of Table 1; for 50% inhibiory concentration (IC50) Enzyme F: β-D-mannosidase from snail, substrate p-nitrophenyl-β-D-mannoside, sodium acetate buffer pH 4.5
Method: as §1, §2, §3
This Test Example is a test example for determining the α-mannosidase or β-mannosidase-inhibitory activity of the compounds according to this invention.
The evaluation of the β-mannosidase-inhibitory activity was conducted according to a modification of the method described in the “Journal of Biological Chemistry”, 242, p.5474 (1967).
Namely, the test was conducted in the same manner as the test for the enzyme-inhibitory activity test described in Test Example 1, but with using α-mannosidase from jack bean or β-mannosidase from snail (both enzymes are products of Sigma Company) as the glycosidase enzyme, with using 0.05 M sodium acetate—acetate buffer (pH 4.5) as the buffer, and with using p-nitrophenyl-α-D-mannoside or p-nitrophenyl-β-D-mannoside as the substrate. Furthermore, absorbances of light were measured in the same manner as in Test Example 1. IC50 values of the test compound capable of giving the 50% inhibition to the enzymes were calculated.

[3] = system: α-D-galactosidase (from Aspergillus niger); test: α-galactosidase inhibition (Test Example 3); details: for 50% inhibiory concentration (IC50) Enzyme C: α-D-galactosidase from Aspergillus niger, substrate p-nitrophenyl-α-D-galactoside
Method: as §1, §2, §3
This Test Example is a test example for determining the α-galactosidase or β-galactosidase-inhibitory activity of the compound of the formula (I), (V) or (X) according to this invention.
The evaluation of the α-galactosidase or β-galactosidase-inhibitory activity was conducted according to a modification of the method described in the “Journal of Biological Chemistry”, 240, p.2468 (1965).
Namely, the test was conducted in the same manner as the test for the enzyme-inhibitory activity described in Test Example 1, but with using α-galactosidase or β-galactosidase (products of by Sigma Company) originated from Aspergillus niger, as the glycosidase enzyme, and with using p-nitrophenyl-α-D-galactoside and p-nitrophenyl-β-D-galactoside as the substrate. Furthermore, absorbances of light at 405 nm were measured in the same manner as in Test Example 1. IC50 values of the test compound capable of giving the 50% inhibition to the enzymes were calculated.

[4] = system: β-N-acetylglucosaminidase (from bovine epididymis); test: β-N-acetylglucosaminidase inhibition (Test Example 2); details: for inhibition of N-acetylglucosaminidase, in words: summary of Table 1; for 50% inhibiory concentration (IC50) Enzyme B: β-N-acetylglucosaminidase from bovine epididymis, substrate p-nitrophenyl-N-acetyl-β-D-glucosaminide
Method: as §1, §2, §3
This Test Example is a test example for determining the N-acetylglucosaminidase-inhibitory activity of the compound of the formula (I), (V) or (X) according to this invention.
The evaluation of the N-acetylglucosaminidase-inhibitory activity was conducted according to a modification of the method described in the “Methods in Enzymology”, 28, p.772 (1972).
Namely, the test was conducted in the same manner as the test for the N-acetylgalactosamnidase-inhibitory activity as described above, but with using […] (a product of Sigma Company) originated from bovine epididymis, as the glycosidase enzyme to be tested, and with using p-nitrophenyl-N-acetyl-β-D-glucosaminide as the substrate. Furthermore, absorbances of light at 405 nm were measured in the same manner as described in […]. IC50 value of the test compound capable of giving the 50% inhibition to β-N-acetyl-glucosaminidase was calculated.

[5] = molecular target: α-D-glucosidase (from yeast); test: α-glucosidase inhibition (Test Example 4); details: for 50% inhibiory concentration (IC50) Enzyme H: α-D-glucosidase from yeast, substrate p-nitrophenyl-α-D-glucoside; for inhibition of α-D-glucosidase, in words: summary of Table 1
Method: as §1, §2, §3
This Test Example is a test example for determining the α-glucosidase or β-glucosidase-inhibitory activity of the compound of the formula (I), (V) or (X) according to this invention.
The evaluation of the β-glucosidase-inhibitory activity was conducted according to a modification of the method described in the “Agricultural and Biological Chemistry”, 26, p.203 (1962).
Namely, the test was conducted in the same manner as the test for the enzyme-inhibitory activity described in Test Example 1, but with using α-glucosidase originated from yeast or β-glucosidase originated from almond (both enzymes are products of Sigma Company) as the glycosidase enzyme, and with using p-nitro-phenyl-α-D-glucoside or p-nitrophenyl-β-D-glucoside as the substrate. Furthermore, absorbances of light were measured in the same manner as in Test Example 1, and IC50 values of the test compound capable of giving the 50% inhibition to the enzyme were calculated.

| SMILES | inhibition of N-acetyl-galactosaminidase, in words ([1]; summary of Table 1) | IC50 [1] [µM] | inhibition of β-D-mannosidase, in words [2] | 50% inhibiory concentration (IC50) Enzyme F [2] [µg/mL] | inhibition of α-D-galactosidase, in words ([3]; summary of Table 1) | 50% inhibiory concentration (IC50) Enzyme C [3] [µg/mL] | inhibition of N-acetylglucosaminidase, in words [4] | 50% inhibiory concentration (IC50) Enzyme B [4] [µg/mL] | 50% inhibiory concentration (IC50) Enzyme H [5] [µg/mL] | inhibition of α-D-glucosidase, in words [5] |
| --- | --- | --- | --- | --- | --- | --- | --- | --- | --- | --- |
| O=C(N[C@H]1NC[C@H](CO)[C@H](O)[C@@H]1O)C(F)(F)F [Formula (I), 6-deacetamido-3-decarboxy-3-hydroxymethyl-6-trifluoroacetamido-siastain B] | inhibit strongly | 2.52 | inhibit strongly | 38 | inhibit strongly | 0.1 | inhibit strongly | 22 | >100 | – |
| CC(=O)NC1NCC(CO)C(O)C1O (stereo not drawn) [Formula (V), 3-decarboxy-4-epi-3-hydroxymethyl-siastain B] | – | > 490 | inhibit strongly | 10 | – | >100 | inhibit strongly | 3 | 7 | inhibit strongly |
| O=C(N[C@H]1NC[C@H](CO)[C@@H](O)[C@@H]1O)C(F)(F)F [Formula (X), 6-deacetamido-3-decarboxy-4-epi-3-hydroxymethyl-6-trifluoroacetamido-siastain B] | – | > 387 | inhibit strongly | 1 | – | >100 | – | >100 | 0.06 | inhibit strongly |
